Data set [1] deals with histone deacetylase. Description: Detection of change in acetylation of histone in cells with anti-acetylated lysine antibody (cell ELISA). In kind it is cell-based, human. Conditions: Hela cells, 8 hours. As to the method: Hela cells were spread onto a 96-well plate for cell culture by adjusting 2500 cells per well (culture medium was DMEM, 200 μl thereof was used per well), and cultured at 37° C. overnight in a 5% CO2 incubator to tightly attach the cells onto the plate. • 3. Treatment with known Inhibitors for Histone Deacetylase […]
The medium was aspirated from each well without touching the cells, and each well was washed with 200 μl of PBS three times. After washing, 200 μl of 100% methanol cooled at −20° C. in advance was added to each well, left at room temperature for 5 min to fix the cells. […] was completely aspirated and dried.
The anti-acetylated lysine residue antibody was diluted to 0.5 μg/ml with the antibody dilution buffer and 100 μl thereof was added to each washed well, and left at 30° C. for 1 hour (the first reaction). After the first reaction, each well was washed with the washing buffer in the same manner, and 100 μl of goat anti-rabbit Ig (H+L) horse radish peroxidase label (MBL) diluted 2000 folds with the antibody dilution buffer was added to each well, and left at 30° C. for 1 hour (the second reaction). Each well was washed with washing buffer, and 100 μl of horse radish peroxidase substrate solution was added to each well and incubated at 30° C. for 30 min for the coloring reaction. 100 μl of the 1.5 N phosphate solution was added thereto to terminate the coloring reaction. Absorbance at 450 nm was measured using a microtiter plate reader.
As a result, an increase of absorbance was observed depending on the concentration of the deacetylase inhibitors (FIGS. 13 and 14, and Tables 1 and 2). In this measurement, a stronger inhibition of deacetylation of histone in cells accompanies a larger degree of acetylation of histone, and absorbance was increased depending on the increase in the concentration of antigen (an acetylated histone). Therefore, an inhibition of the deacetylase activity correlates to an increase of absorbance.
(ELISA stands for enzyme-linked immunosorbent assay.)

Data set [2] concerns CMV promoter. Description: CMV promoter activity in pcDNA3-GFP-harboring CHO cells detected using the GFP reporter gene. In kind it is cell-based. Conditions: 8 hours. On the procedure: A plasmid vector (pcDNA3-GFP), in which GFP gene was introduced into a multicloning site immediately downstream of CMV promoter in pcDNA3 expression vector for mammalian cells in the forward direction was prepared by the standard method using E. coli. • 2. Introduction of the Plasmid Vector into Cells and Screening of Plasmid-Harboring Cells
pcDNA3-GFP was introduced into CHO cells by the lipofection method, and cultured for 24 hours at 37° C. in a 5% CO2 incubator (4 ml of DMEM was used as a culture medium per 6 cm-plate). Neomycin, an antibiotic, the resistance gene of which is carried on pcDNA3 plasmid, was added to the medium, and cultured for 2 weeks to select cells harboring pcDNA3-GFP. During this screening, the medium was replaced with a new one containing neomycin every four days. • 3. Screening of the Plasmid-Harboring Cells in which the Promoter Activity is Inhibited
The clones of the screened cells were transferred to separate plates and cultured. […] Several clones in which emission of the product of the GFP gene ligated downstream of CMV promoter was weak or was hardly detected were selected.
These cells were spread onto a 96-well plate for cell culture, adjusted to about 2500 cells per well (200 μl of DMEM was used as the culture medium per well), and cultured overnight (about 10 to 20 hours) at 37° C. in a 5% CO2 incubator to tightly attach the cells onto the plate. […]
The amount of GFP proteins expressing in cells in each well of the treated 96-well plate was measured with a fluorescent multiplate reader as change of fluorescence intensity.
As a result, an increase of florescence intensity was observed depending on the concentration of the deacetylase inhibitors (FIGS. 15, 16 and Tables 3 and 4).

Data set [3] deals with sub p53-1 and sub p53-2 peptides. Description: ELISA system for measuring the acetyltransferase activity (liquid and solid phase). The note with it: 0 to 10 μg/ml; liquid and solid phases; depending on the concentration; FIGS. 9 and 10. In kind it is biochemical, human. On the procedure:
Two peptide substrates “Sub p53-1” (SEQ ID NO: 13/Bio-STSRHKKLMFKTE) and “Sub p53-2” (SEQ ID NO: 14/Bio-SHLKSKKGQSTSR) comprising the 373rd and 382nd lysine residues of the amino acid sequence of human p53, respectively, reported as an acetylation sites of acetyltransferase, were prepared by a peptide synthesizer. Amino acids in the peptide are shown in one-letter codes, and “Bio” at the amino ends means biotin. Ninety percent or higher purity was confirmed by HPLC. “Sub p53-1” and “Sub-p53-2” were composed of amino acids 376 to 388 and amino acids 367 to 379, respectively. […] The amplified PCR product was subcloned to pGEX, expressed as a fusion with GST, and purified (GST-p53 Cter). • (2) Preparation of a Peptide Substrate, “GST-p53 Cter” and a Streptoavidin Sensitized Plate […]
The synthesized peptide substrates and a recombinant acetyltransferase were reacted in the liquid phase, and the enzyme activity was measured by the ELISA system using a microtiter plate. […] 100 μl of 1.5 N phosphate solution were added to terminate the coloring reaction, and absorbance at 450 nm was measured using a microtiter plate reader. • Solid Phase Analysis System (Refer to FIG. 2) […]

The target in data set [4] is T1, Sub p53-2.
T1 chain: SHLKSKKGQSTSR

Data set [5] deals with T2, Sub p53-1.
T2 chain: STSRHKKLMFKTE

As for `CCCC(=O)O` [S. B., butyric acid], the “Absorbance at 450 nm” value in data set [1] (S. B. concentration 0.012 mM) is 0.091; in data set [1] (S. B. concentration 0.049 mM), 0.077; in data set [1] (S. B. concentration 0.195 mM), 0.097; in data set [1] (S. B. concentration 0.78 mM), 0.136; in data set [1] (S. B. concentration 3.13 mM), 0.306; in data set [1] (S. B. concentration 12.5 mM), 0.551. In data set [1] (S. B. concentration 50 mM), the “Absorbance at 450 nm” value amounted to 0.545. Also, the “Relative fluorescence intensity (%)” value in data set [2] (S. B. concentration 0.012 mM) turned out to be 8.5%; in data set [2] (S. B. concentration 0.049 mM), 7.8%; in data set [2] (S. B. concentration 0.195 mM) it was 13.3%; in data set [2] (S. B. concentration 0.78 mM), 15.7%; in data set [2] (S. B. concentration 3.13 mM) it was 50.3%; in data set [2] (S. B. concentration 12.5 mM), 98.5%. Also, the “Relative fluorescence intensity (%)” value in data set [2] (S. B. concentration 50 mM) is reported as 100%.
`CC(/C=C/C(=O)NO)=C\[C@@H](C)C(=O)c1ccc(N(C)C)cc1` [TSA, trichostatin A]: the “Absorbance at 450 nm” value in data set [1] (TSA concentration 0.5 nM) was determined as 0.056; in data set [1] (TSA concentration 1.95 nM), 0.056; in data set [1] (TSA concentration 7.8 nM) it was 0.041; in data set [1] (TSA concentration 31.3 nM), 0.071; in data set [1] (TSA concentration 125 nM) it was 0.095; in data set [1] (TSA concentration 500 nM) it was 0.278. Besides, the “Absorbance at 450 nm” value in data set [1] (TSA concentration 2000 nM) is listed as 0.476. Also, the “Relative fluorescence intensity (%)” value in data set [2] (TSA concentration 0.5 nM) was 2.2%; in data set [2] (TSA concentration 1.95 nM) it was 1.8%; in data set [2] (TSA concentration 7.8 nM) it was 5.1%; in data set [2] (TSA concentration 31.3 nM) it was 12.3%; in data set [2] (TSA concentration 125 nM), 34.2%; in data set [2] (TSA concentration 500 nM) it was 73.1%. In addition, the “Relative fluorescence intensity (%)” value in data set [2] (TSA concentration 2000 nM) is listed as 100%.

B1: recombinant CBP (protein)
chain: QNRYHFCEKCFTEIQGENVTLGDDPSQPQTTISKDQFEKKKNDTLDPEPFVDCKECGRKMHQICVLHYDIIWPSGFVCDNCLKKTGRPRKENKFSAKRLQTTRLGNHLEDRVNKFLRRQNHPEAGEVFVRVVASSDKTVEVKPGMKSRFVDSGEMSESFPYRTKALFAFEEIDGVDVCFFGMHVQEYGSDCPPPNTRRVYISYLDSIHFFRPRCLRTAVYHEILIGYLEYVKKLGYVTGHIWACPPSEGDDYIFHCHPPDQKIPKPKRLQEWYKKMLDKAFAERIIHDYKDIFKQATEDRLTSAKELPYFEGDFWPNVLEESIKELEQEEEERKKEESTAASETTEGSQGDSKNAKKKNNKKTNKNKSSISRANKKKPSMPNVSNDLSQKLYATMEKHKEVFFVIHLHAGPVINTLPPIVDPDPLLSCDLMDGRDAFLTLARDKHWEFSSLRRSKWSTLCMLVELHTQGQDRFVYTCNEC
Take B1: the “acetyltransferase activities to sub p53-1 and sub p53-2 peptides” value in data set [3] is given as “detected”. The “acetyltransferase activity (ELISA with anti-acetylated peptide antibody, absorbance at 450 nm; liquid and solid phase)” value in data set [4] was “the acetyltransferase activities to "subp53-1" and "sub p53-2" peptides depending on the concentration of CBP were detected”; in data set [5], “the acetyltransferase activities to "subp53-1" and "sub p53-2" peptides depending on the concentration of CBP were detected”.

Source of the values: patent publication US6884597B1, “Method for detecting acetyltransferase and deacetylase activities and method for screening inhibitors or enhancers of these enzymes” (Medical & Biological Laboratories, Co., Ltd., priority 1998, dated 2005).
